In publication PMC10004634 (PLOS ONE, 2023):

Assays:
U-2932 cells = assay: Western blot of BTK downstream signaling (p-PLCγ2, p-ERK1/2, p-AKT, p-IκBα); type: cell-based, human
Description: (§1) After culturing, cells were harvested and lysed with cell lysis buffer (Cell Signaling Technology, Inc.) containing 1 mM AEBSF (Calbiochem, #101500). As a positive control of BTK autophosphorylation for western blot analysis, TMD8 cells were treated with hydrogen peroxide (H2O2; final concentration: 6 mM) for 10 min, harvested as a control sample, and then lysed with the cell lysis buffer.
(§2) Each mixture of cells and cell lysis buffer was incubated on ice for 5 min, then centrifuged at 13400 × g and 4°C for 10 min. Total lysates were loaded on 4%–12% SDS-PAGE (Bio-Rad) and transferred to a polyvinylidene difluoride (PVDF) membrane (Immobilon-P Transfer Membrane, Millipore Corporation). The blot was incubated in Tris-buffered saline with Tween 20 (TBS-T, Cell Signaling Technology, Inc.) containing 2 w/v% ECL Advance Blocking Agent (GE Healthcare Life Sciences, b) for 1 h at room temperature. The blocked PVDF membranes were immersed in TBS-T and washed three times with shaking at room temperature for 10 min. The membrane was incubated with primary antibody in TBS-T containing 2 w/v% ECL Advance Blocking Agent with gentle agitation overnight at 5°C in a cold storage room or for 1 h at room temperature. Rabbit monoclonal anti- phosphorylated BTK (Tyr-223) antibody (p-BTK; Novus Biologicals, #NB100-79907), rabbit monoclonal BTK antibody (Cell Signaling Technology, Inc., #3533), rabbit polyclonal phosphorylated AKT (Ser-473) antibody (p-AKT; Cell Signaling Technology, Inc., #9271), rabbit monoclonal AKT (pan) (C67E7) antibody (Cell Signaling Technology, Inc., #4691), rabbit polyclonal phosphorylated p44/42 MAPK (ERK1/2) (Thr-202/Tyr-204) antibody (p-ERK1/2; Cell Signaling Technology, Inc., #9101), rabbit monoclonal p44/42 MAPK (ERK1/2) (137F5) antibody (Cell Signaling Technology, Inc., #4695), rabbit monoclonal phosphorylated PLCγ2 (Tyr-759) (E9E9Y) antibody (p-PLCγ2; Cell Signaling Technology, Inc., #50535), rabbit monoclonal PLCγ2 (E5U4T) antibody (Cell Signaling Technology, Inc., #55512), mouse monoclonal phosphorylated IκBα (Ser-32/36) (5A5) antibody (p-IκBα; Cell Signaling Technology, Inc., #9246), rabbit monoclonal IκBα (44D4) antibody (Cell Signaling Technology, Inc., #4812), rabbit polyclonal phosphorylated PKCβ (phospho-Thr-641) antibody (p-PKCβ; Signalway Antibody LLC, #11172), rabbit monoclonal IRF4 (D9P5H) antibody (Cell Signaling Technology, Inc., #15106), rabbit monoclonal BCL6 (D65C10) antibody (Cell Signaling Technology, Inc., #5650), rabbit monoclonal c-MYC (D84C12) antibody (Cell Signaling Technology, Inc., #5605), and rabbit monoclonal GAPDH (14C10) antibody (Cell Signaling Technology, Inc., #2118) were used. The PVDF membranes were immersed in TBS-T and washed three times with shaking at room temperature for 10 min, then incubated with secondary antibody with shaking for 1 h at room temperature. The secondary antibody used was anti-rabbit-IgG horseradish peroxidase (HRP)-linked antibody (Cell Signaling Technology, #7074) or goat anti-rabbit immunoglobulins/HRP (Dako, P0448). The PVDF membranes were washed three times with shaking at room temperature for 10 min and were treated with ECL^TM Advance Western Blotting Detection Kit (GE Healthcare Life Sciences, #RPN2135) for chemiluminescent detection according to the manufacturer’s instruction. Lumino-image analyzer (LAS-1000 Plus system, Fuji Photo Film Co., Ltd.) and Image Reader LAS-1000 Lite version 1.3 (Fuji Photo Film Co., Ltd.) were used to visualize bands. The densitometry analysis described the ratio of phosphorylated to total BTK protein. […] 5.04 (GraphPad Software, Inc.).

TMD8 cells = assay: as above; type: cell-based, human
Description: as §1, §2

HUNK = molecular target: T1, HUNK (Homo sapiens, UniProt P57058); assay: KINOMEscan binding assay; parameters: purchased Eurofins DiscoverX (KINOMEscan scanMAX service); details: 300 nM; read-out: inhibition of kinase binding (KINOMEscan)
T1 sequence (P57058 1-714): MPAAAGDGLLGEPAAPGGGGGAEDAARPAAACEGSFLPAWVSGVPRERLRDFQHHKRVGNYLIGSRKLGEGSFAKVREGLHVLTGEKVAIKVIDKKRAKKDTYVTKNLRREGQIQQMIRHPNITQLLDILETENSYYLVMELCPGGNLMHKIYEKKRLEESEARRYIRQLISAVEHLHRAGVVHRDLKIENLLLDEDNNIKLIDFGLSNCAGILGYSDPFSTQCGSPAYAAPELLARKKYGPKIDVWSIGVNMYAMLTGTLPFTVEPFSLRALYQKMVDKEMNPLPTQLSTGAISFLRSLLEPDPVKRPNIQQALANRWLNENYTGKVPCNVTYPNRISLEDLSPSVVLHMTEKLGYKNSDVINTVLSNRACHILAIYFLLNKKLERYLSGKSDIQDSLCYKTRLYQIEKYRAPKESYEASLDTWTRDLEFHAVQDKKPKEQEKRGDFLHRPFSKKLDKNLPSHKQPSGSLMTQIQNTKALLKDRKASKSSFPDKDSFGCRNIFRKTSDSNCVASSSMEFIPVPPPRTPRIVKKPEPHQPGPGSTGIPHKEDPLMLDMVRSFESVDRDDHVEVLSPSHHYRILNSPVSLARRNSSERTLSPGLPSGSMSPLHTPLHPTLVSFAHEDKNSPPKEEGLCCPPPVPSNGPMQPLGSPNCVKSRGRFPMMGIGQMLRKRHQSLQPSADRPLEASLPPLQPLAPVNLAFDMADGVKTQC

TMD8 xenograft tumor = assay: Gene expression microarray analysis of TMD8 xenograft tumors
Description: The TMD8 xenograft model was also used for microarray analysis. […] After 21 days of drug administration and 24 h after the final dose, the mice underwent laparotomy under isoflurane anesthesia and were sacrificed by exsanguination. Tumors were collected and quickly frozen with liquid nitrogen. RNA extraction and gene expression microarray analysis were performed at LSI Medience Corporation (Tokyo, Japan) using the miRNeasy® mini kit (Qiagen, Hilden, Germany) and the Low Input Quick Amp Labeling Kit (Agilent Technologies, Santa Clara, CA, USA) according to the manufacturers’ instructions. The DNA microarray results were processed using Expressionist Analyst (GeneData, Basel, Switzerland) and Excel.

## CC#CC(=O)N1CC[C@@H](n2c(=O)n(-c3ccc(Oc4ccccc4)cc3)c3c(N)ncnc32)C1 [Tirabrutinib]
U-2932 cells; 1 μM
  AKT signaling (p-AKT Ser-473): did not indicate inhibition
U-2932 cells; 1 μM, 4 h
  p-IκBα at S32/36: inhibited
U-2932 cells; 1 h, 10-300 nM
  p-ERK: not clear
  phosphorylation of PLCγ2 at Tyr-759: inhibited
U-2932 cells; 4 h, 10-300 nM
  p-ERK: significant inhibition
TMD8 cells; 1 μM
  p-AKT at Ser-473: inhibition
TMD8 cells; 1 μM, 4 h
  p-IκBα at S32/36: inhibited
TMD8 cells; 1 h, 10-300 nM
  p-ERK: inhibited
  phosphorylation of PLCγ2 at Tyr-759: inhibited
HUNK
  inhibition at 0.3 µM: 89%
TMD8 xenograft tumor; 10 mg/kg BID 21 days vs vehicle, fold change <0.5, P < 0.01
  number of downregulated probes: 575
TMD8 xenograft tumor; 10 mg/kg BID 21 days vs vehicle, fold change >2, P < 0.01
  number of upregulated probes: 549
TMD8 xenograft tumor; TMD8 xenograft, tirabrutinib vs vehicle
  PRDM1 expression: repressed
